Drawing on PubChem BioAssay AID434967 (Sanford-Burnham Center for Chemical Genomics, 2010), this text covers IC50 for 10 compounds.

Molecules are shown by their SMILES.

The test can be described thus: blockers of HIV fusion peptide binding, cell-free – biochemical, fluorescence quenching, SAR follow-up (AID 434967). Conditions: 30 min.
As a reminder, the IC50 is the concentration at which inhibition is half-maximal. As to `COc1ccc(C(=O)Oc2ccc(C=NNc3ccc(Cl)c(C(=O)O)c3)cc2OC)cc1`, the IC50 was 5.16 µM. The figure for `CC(C)(C)c1cc(-c2csc(Nc3ccccc3)[n+]2Cc2ccc(C(=O)O)cc2)cc(C(C)(C)C)c1O` is 27.3 µM; for `O=C(N/N=C/c1c(O)n(C2CCCCC2)c(=S)[nH]c1=O)c1ccccc1O` it is 9 µM; for `CCOC(=O)c1sc(N2C(=O)C(O)=C(C(=O)c3ccc(C)o3)C2c2cccc([N+](=O)[O-])c2)nc1C` (stereo not given) it is 10.5 µM.

Regarding `N#C/C(=C\c1ccc(O)c([N+](=O)[O-])c1)c1nc2ccccc2s1`, the IC50 is 6.25 µM. With `Cc1c2c(=O)n(-c3nc4ccccc4s3)nc-2cc(O)n1Cc1ccccc1`, the IC50 is 10.1 µM. As for `COc1cc(C=NNc2ccc(Cl)c(C(=O)O)c2)ccc1OC(=O)c1ccc(F)cc1`, the figure is 8.03 µM; as for `O=C(O)c1cc(NN=Cc2ccc(-c3ccccc3)cc2)ccc1Cl`, 14.8 µM; as for `COc1cc(C=NNc2ccc(Cl)c(C(=O)O)c2)ccc1OC(=O)c1ccccc1F`, 25.9 µM. As for `O=C(O)c1ccccc1N=Nc1c(O)[nH]c2ccc([N+](=O)[O-])cc12`, the figure is 13.3 µM.
